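In this assay, cells in 96-well plates receive the compound at five concentrations for 48 hours. Endpoints are linearly interpolated between the surrounding concentrations. The concentration for 50% growth inhibition is given as GI50. TGI: total growth inhibition.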

Consider 9 molecules from PubChem BioAssay (NCI).

Test systems include K-562 leukemia; 786-0 renal; RXF 393 renal; SK-MEL-5 melanoma; TK-10 renal; SK-MEL-28 melanoma; SF-539 CNS; HL-60(TB) leukemia.
Test in all cases: NCI-60 cell line screen, 48 h

As for `O=C1/C(=C/c2ccccc2F)CN(C(=O)C(Cl)Cl)C/C1=C\c1ccccc1F`, the GI50 was less than 0.04 µM with K-562 leukemia; 0.666 µM with 786-0 renal; 0.584 µM in the assay with RXF 393 renal; 0.533 µM in the assay on SK-MEL-5 melanoma; 1.61 µM in the assay with TK-10 renal; 0.477 µM in the assay with SK-MEL-28 melanoma. Further, the values for the GI50 in the assay with SF-539 CNS and in the assay on HL-60(TB) leukemia were 0.431 µM and 0.363 µM, respectively. Besides, the TGI is more than 100 µM in the assay with K-562 leukemia; 2 µM with 786-0 renal; 1.75 µM with RXF 393 renal; 1.64 µM with SK-MEL-5 melanoma; 3.02 µM in the assay with TK-10 renal; 1.47 µM in the assay on SK-MEL-28 melanoma. Further, the results for the TGI with SF-539 CNS and in the assay on HL-60(TB) leukemia were 1.78 µM and 2.25 µM, respectively.

For the molecule `O=C1CCC(N2Cc3c(C#CCCCNC(=O)c4cc5c(o4)C(=O)c4ccccc4C5=O)cccc3C2=O)C(=O)N1` (stereo not drawn), the GI50 in the assay with K-562 leukemia was 3.11 µM; with 786-0 renal it was 15.3 µM; with RXF 393 renal, 4.55 µM; in the assay with SK-MEL-5 melanoma it was 1.75 µM; with TK-10 renal it was 33.1 µM; in the assay with SK-MEL-28 melanoma, 3.53 µM. Also, the GI50 in the assay on SF-539 CNS was 2.27 µM; in the assay with HL-60(TB) leukemia it was 2.37 µM. Besides, the TGI in the assay on K-562 leukemia was determined as 16.6 µM; with 786-0 renal, 32 µM; with RXF 393 renal, 18.2 µM; with SK-MEL-5 melanoma, 3.25 µM; in the assay with TK-10 renal, 50.2 µM; in the assay with SK-MEL-28 melanoma, 8.83 µM. The TGI amounted to 5.26 µM in the assay on SF-539 CNS and 7.34 µM with HL-60(TB) leukemia.

H-HIIKKIRTWYRKAWHVLGKV-NH2: the GI50 in the assay with K-562 leukemia is 6.56 µM; with 786-0 renal, 3.37 µM; in the assay on RXF 393 renal, 4.23 µM; in the assay on SK-MEL-5 melanoma, 3.94 µM; with TK-10 renal, 3.24 µM; in the assay with SK-MEL-28 melanoma it was 2.61 µM. Besides, the GI50 in the assay with SF-539 CNS is 2.14 µM; in the assay with HL-60(TB) leukemia, 4.29 µM. Further, the TGI in the assay on K-562 leukemia is more than 100 µM; in the assay on 786-0 renal, 16.6 µM; with RXF 393 renal, 25.1 µM; in the assay with SK-MEL-5 melanoma it was 19.5 µM; in the assay on TK-10 renal, 15.6 µM; with SK-MEL-28 melanoma, 7.66 µM. In addition, the TGI in the assay with SF-539 CNS was found to be 5.31 µM; with HL-60(TB) leukemia, 23.3 µM.

Take `COc1cc(C2CC(c3ccccc3)=NN2C(C)=O)cc(OC)c1OC` (stereo not drawn): the GI50 in the assay with K-562 leukemia is 2.77 µM; with 786-0 renal it was 5.93 µM; in the assay with RXF 393 renal, 4.14 µM; in the assay on SK-MEL-5 melanoma it was 2.87 µM; in the assay on TK-10 renal, more than 46.9 µM; with SK-MEL-28 melanoma, 6.48 µM. Moreover, the values for the GI50 in the assay with SF-539 CNS and in the assay on HL-60(TB) leukemia were 3.06 µM and 3.26 µM, respectively. Besides, the TGI is more than 100 µM in the assay on K-562 leukemia; more than 100 µM with 786-0 renal; more than 48.2 µM with RXF 393 renal; more than 100 µM in the assay on SK-MEL-5 melanoma; more than 100 µM in the assay on TK-10 renal; more than 100 µM in the assay with SK-MEL-28 melanoma. Also, the TGI in the assay on SF-539 CNS was 17.8 µM; in the assay with HL-60(TB) leukemia it was more than 31.7 µM.

Consider `Cc1[nH]nc2ccc3nc(-c4ccc5[nH]ncc5c4)c4c(c3c12)CCCC4`, for which the GI50 is 1.7 µM in the assay on K-562 leukemia; 1.19 µM in the assay on 786-0 renal; 0.23 µM in the assay with RXF 393 renal; 1.92 µM in the assay on SK-MEL-5 melanoma; 1.12 µM with TK-10 renal; 2.09 µM in the assay with SK-MEL-28 melanoma. Moreover, the values for the GI50 in the assay with SF-539 CNS and in the assay with HL-60(TB) leukemia were 1.62 µM and 1.73 µM, respectively. Also, the TGI in the assay on K-562 leukemia was more than 100 µM; in the assay with 786-0 renal, 12.9 µM; in the assay with SK-MEL-5 melanoma it was 5 µM; in the assay with TK-10 renal, 20 µM; in the assay on SK-MEL-28 melanoma, 9.54 µM; in the assay on SF-539 CNS, 8.44 µM. Also, the TGI in the assay on HL-60(TB) leukemia stood at 4.32 µM.

In the case of `O=C(Cc1ccccc1)NC(c1ccc(Cl)cc1)c1c(O)ccc2ccccc12` (stereo not drawn), the GI50 is 3.1 µM with K-562 leukemia; 2.87 µM in the assay with 786-0 renal; 2.17 µM in the assay on RXF 393 renal; 1.73 µM in the assay on SK-MEL-5 melanoma; 4.17 µM with TK-10 renal; 3.16 µM in the assay on SK-MEL-28 melanoma. Also, the GI50 with SF-539 CNS is 2.53 µM; in the assay on HL-60(TB) leukemia it was 2.43 µM. In addition, the TGI in the assay with K-562 leukemia worked out at 26.3 µM; with 786-0 renal it was 9.76 µM; in the assay with RXF 393 renal, 8.03 µM; in the assay with SK-MEL-5 melanoma, 3.2 µM; in the assay with TK-10 renal it was 13.2 µM; with SK-MEL-28 melanoma, 11.6 µM. The TGI with SF-539 CNS is 7.51 µM; in the assay on HL-60(TB) leukemia, 6.39 µM.

Regarding `COc1nc(N)nc2c1ncn2[C@@H]1O[C@H](CO)[C@@H](O)[C@@H]1O`, the GI50 in the assay on K-562 leukemia, in the assay with 786-0 renal, with RXF 393 renal, in the assay on SK-MEL-5 melanoma, in the assay with TK-10 renal and in the assay on SK-MEL-28 melanoma was more than 100 µM throughout. In addition, the GI50 in the assay with SF-539 CNS and in the assay with HL-60(TB) leukemia was more than 100 µM each time. Further, the TGI in the assay on K-562 leukemia, with 786-0 renal, in the assay on RXF 393 renal, in the assay on SK-MEL-5 melanoma, in the assay with TK-10 renal and in the assay on SK-MEL-28 melanoma was more than 100 µM throughout. For the same molecule, the TGI in the assay on SF-539 CNS and in the assay on HL-60(TB) leukemia was more than 100 µM in each case.

For the molecule `Cc1nn(-c2ccccc2)c2nc3c(nc12)C1=NCCN1C(c1ccc(Cl)cc1)N3` (stereo not drawn), the GI50 in the assay on K-562 leukemia was 2.42 µM; in the assay on 786-0 renal it was 2.99 µM; with RXF 393 renal, 1.56 µM; in the assay on SK-MEL-5 melanoma, 1.57 µM; in the assay on TK-10 renal it was 2.93 µM; in the assay on SK-MEL-28 melanoma, 1.78 µM. Also, the results for the GI50 in the assay on SF-539 CNS and in the assay with HL-60(TB) leukemia were 1.94 µM and 1.87 µM, respectively. In addition, the TGI in the assay on K-562 leukemia amounted to 6.19 µM; in the assay on 786-0 renal it was 8.9 µM; in the assay with RXF 393 renal it was 3.07 µM; with SK-MEL-5 melanoma, 3.12 µM; in the assay on TK-10 renal, 7.18 µM; with SK-MEL-28 melanoma it was 3.37 µM. The figures for the TGI with SF-539 CNS and in the assay on HL-60(TB) leukemia were 4.23 µM and 4.4 µM, respectively.

For `N#C/C(=C1C=C/C(=N\O)C(Cl)=C\1)c1ccccc1`, the GI50 with K-562 leukemia is 2.27 µM; with 786-0 renal, 0.745 µM; in the assay with RXF 393 renal, 4.72 µM; in the assay on SK-MEL-5 melanoma, 3.05 µM; with TK-10 renal it was 5.12 µM; in the assay with SK-MEL-28 melanoma, 6.77 µM. Besides, the values for the GI50 with SF-539 CNS and in the assay on HL-60(TB) leukemia were 1.34 µM and 2.19 µM, respectively. Moreover, the TGI in the assay with K-562 leukemia turned out to be 13.5 µM; in the assay on 786-0 renal, 11.9 µM; with RXF 393 renal, 18.2 µM; in the assay on SK-MEL-5 melanoma it was 10.3 µM; in the assay with TK-10 renal it was 16.4 µM; in the assay on SK-MEL-28 melanoma it was 21.8 µM. The values for the TGI in the assay on SF-539 CNS and with HL-60(TB) leukemia were 5 µM and 5.67 µM, respectively.
